The values that follow come from ChEMBL document CHEMBL4266003, “New Dopamine D3-Selective Receptor Ligands Containing a 6-Methoxy-1,2,3,4-tetrahydroisoquinolin-7-ol Motif” (ACS Med Chem Lett, 2018).

pEC50, pKi: −log10 of the molar value. The source made the active and inactive calls. The rule behind the calls is not given here.

For one test, the target named is T1, D(4) dopamine receptor (Homo sapiens, UniProt P21917).
T1 sequence (P21917 whole entry): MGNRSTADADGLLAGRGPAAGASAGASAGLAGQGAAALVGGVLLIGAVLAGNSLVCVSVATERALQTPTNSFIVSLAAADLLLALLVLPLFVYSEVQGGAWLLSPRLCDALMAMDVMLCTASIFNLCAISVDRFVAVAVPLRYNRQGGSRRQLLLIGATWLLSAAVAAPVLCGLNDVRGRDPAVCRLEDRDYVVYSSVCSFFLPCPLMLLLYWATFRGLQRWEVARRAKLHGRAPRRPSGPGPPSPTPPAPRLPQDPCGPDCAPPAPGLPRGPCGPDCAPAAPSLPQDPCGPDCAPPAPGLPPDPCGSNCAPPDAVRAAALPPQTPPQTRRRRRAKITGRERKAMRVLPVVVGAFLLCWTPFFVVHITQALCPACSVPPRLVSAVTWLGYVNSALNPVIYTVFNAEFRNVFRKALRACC
Nature of the test: Displacement of [3H]N-Methylspiperone from human dopamine D4 receptor expressed in HEK cell membranes.

Test [1] concerns the target T2, D(2) dopamine receptor (Homo sapiens, UniProt P14416). As to the kind of experiment: Inhibition of human dopamine D2 receptor expressed in HEKT cell membranes at 10 uM relative to control. In kind it is cell-based.
Test [2] addresses T3, D(3) dopamine receptor (Homo sapiens, UniProt P35462). Nature of the test: Displacement of [3H]N-Methylspiperone from human dopamine D3 receptor expressed in HEKT cell membranes. (Displacement assays read how much labelled ligand stays bound in the presence of the test substance.)
Test [3] deals with T4, D(1A) dopamine receptor (Homo sapiens, UniProt P21728). As to the kind of experiment: Inhibition of human dopamine D1 receptor expressed in HEKT cell membranes at 10 uM relative to control. In kind it is cell-based.
T4 sequence (P21728 whole entry): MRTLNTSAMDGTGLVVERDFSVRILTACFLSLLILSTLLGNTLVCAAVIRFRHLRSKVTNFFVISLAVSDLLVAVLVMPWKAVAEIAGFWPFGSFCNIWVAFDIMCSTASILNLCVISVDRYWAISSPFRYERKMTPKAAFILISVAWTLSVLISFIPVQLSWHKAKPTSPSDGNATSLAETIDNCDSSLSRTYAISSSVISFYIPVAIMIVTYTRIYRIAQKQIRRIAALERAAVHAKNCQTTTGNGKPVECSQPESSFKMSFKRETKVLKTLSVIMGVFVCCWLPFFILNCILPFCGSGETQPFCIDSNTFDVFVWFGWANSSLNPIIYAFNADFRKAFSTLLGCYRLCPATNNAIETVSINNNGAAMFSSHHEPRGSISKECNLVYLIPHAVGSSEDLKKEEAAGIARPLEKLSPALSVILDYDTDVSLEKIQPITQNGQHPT
Test [4] concerns the target T3, D(3) dopamine receptor. As to the kind of experiment: Agonist activity at human dopamine D3 receptor assessed as beta-arrestin recruitment by Tango assay. In kind it is functional.
The target of test [5] is T3, D(3) dopamine receptor. As to the kind of experiment: Antagonist activity at human dopamine D3 receptor assessed as inhibition of beta-arrestin recruitment by Tango assay. The class given is functional. (Activated receptors often draw arrestin, which recruitment assays turn into a signal.)
The target of test [6] is T4, D(1A) dopamine receptor. Nature of the test: Displacement of [3H]SCH23390 from human dopamine D1 receptor expressed in HEKT cell membranes.
The species named for test [7] is Homo sapiens. As to the kind of experiment: Selectivity ratio of Ki for human dopamine D1 receptor expressed in HEKT cell membranes to Ki for human dopamine D3 receptor expressed in HEKT cell membranes. In kind it is cell-based.
The target of test [8] is T2, D(2) dopamine receptor. Nature of the test: Displacement of [3H]N-Methylspiperone from human dopamine D2 receptor expressed in fibroblasts.
For test [9], the species on record is Homo sapiens. As to the kind of experiment: Selectivity ratio of Ki for human dopamine D2 receptor expressed in fibroblasts to Ki for human dopamine D3 receptor expressed in HEKT cell membranes. The class given is cell-based.
The target in test [10] is T5, D(4) dopamine receptor (Homo sapiens) (UniProt P21917).
T5 sequence (whole entry): T1 sequence (P21917 whole entry)
As to the kind of experiment: Inhibition of human dopamine D4 receptor expressed in HEKT cell membranes at 10 uM relative to control. The class given is cell-based.

T2 sequence (P14416 whole entry): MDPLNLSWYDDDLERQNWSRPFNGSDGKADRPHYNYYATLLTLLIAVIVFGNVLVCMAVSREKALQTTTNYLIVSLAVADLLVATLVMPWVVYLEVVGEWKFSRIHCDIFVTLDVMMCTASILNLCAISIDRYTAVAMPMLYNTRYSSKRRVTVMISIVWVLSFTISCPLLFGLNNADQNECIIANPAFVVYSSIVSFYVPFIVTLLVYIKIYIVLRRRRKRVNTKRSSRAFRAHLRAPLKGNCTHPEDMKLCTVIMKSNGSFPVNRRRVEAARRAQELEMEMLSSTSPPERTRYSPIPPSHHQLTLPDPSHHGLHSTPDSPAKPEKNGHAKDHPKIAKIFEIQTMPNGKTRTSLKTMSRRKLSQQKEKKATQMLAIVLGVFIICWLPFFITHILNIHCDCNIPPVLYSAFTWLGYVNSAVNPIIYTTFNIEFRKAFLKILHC
T3 sequence (P35462 whole entry): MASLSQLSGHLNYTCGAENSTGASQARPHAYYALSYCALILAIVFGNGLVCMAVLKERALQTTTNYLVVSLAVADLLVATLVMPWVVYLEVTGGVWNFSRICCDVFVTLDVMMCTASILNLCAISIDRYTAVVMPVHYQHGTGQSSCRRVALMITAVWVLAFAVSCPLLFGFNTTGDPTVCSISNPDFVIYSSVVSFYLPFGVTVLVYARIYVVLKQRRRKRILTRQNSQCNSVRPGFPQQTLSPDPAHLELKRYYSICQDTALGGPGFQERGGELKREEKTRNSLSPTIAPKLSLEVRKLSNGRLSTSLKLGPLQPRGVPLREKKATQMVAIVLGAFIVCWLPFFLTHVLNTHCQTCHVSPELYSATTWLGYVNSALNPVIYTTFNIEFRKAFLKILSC

One may read the pKi as the Ki on a negative log10 scale, so that one unit is a factor of ten. Broadly, the inhibition is the percentage by which the read-out fell short of the control. The low end stands for little suppression, the high end for strong suppression. In the case of `COc1cccc(C(=O)NCCCCN2CCc3cc(OC)c(O)cc3C2)c1`, the pKi is 6.82 at D(4) dopamine receptor and 7.92 on D(3) dopamine receptor [2]. Also, the inhibition on D(2) dopamine receptor [1] and at D(1A) dopamine receptor [3] was below 50% in each case.

By pEC50 is commonly meant the EC50 on a negative log10 scale, so that one unit is a factor of ten. Turning to `COc1ccc(C(=O)NCCCCN2CCc3cc(OC)c(O)cc3C2)cc1`, on D(3) dopamine receptor [4], the result was inactive. Besides, the pEC50 on D(3) dopamine receptor [5] was 6.44. Also, the pKi at D(4) dopamine receptor was 6.25; at D(3) dopamine receptor [2], 8.23. For the same compound, the inhibition on D(2) dopamine receptor [1] and on D(1A) dopamine receptor [3] was below 50% each time.

Regarding `COc1cc2c(cc1O)CN(CCCCNC(=O)c1ccc3ccccc3c1)CC2`, the pKi is 6.10 on D(1A) dopamine receptor [6], 6.15 on D(2) dopamine receptor [8], 6.77 on D(4) dopamine receptor and 8.57 on D(3) dopamine receptor [2]. Besides, the Ratio Ki in the test filed under Homo sapiens [7] amounted to 296; in the test filed under Homo sapiens [9] it was 260.

Consider `COc1cc2c(cc1O)CN(CCCCNC(=O)c1ccc(I)cc1)CC2`, for which the pKi on D(1A) dopamine receptor [6] was 5.80; at D(4) dopamine receptor it was 5.82; at D(3) dopamine receptor [2], 8.00. Besides, the Ratio Ki in the test filed under Homo sapiens [7] was determined as 160. At D(2) dopamine receptor [1], this compound returned an inhibition below 50%.

Turning to `COc1cc2c(cc1O)CN(CCCCNC(=O)c1ccnc3ccccc13)CC2`, the pKi at D(1A) dopamine receptor [6] was 5.74; at D(4) dopamine receptor it was 6.39; at D(3) dopamine receptor [2], 7.66. Also, the Ratio Ki in the test listed under Homo sapiens [7] is 82. The inhibition at D(2) dopamine receptor [1] was below 50%.

As for `COc1cc2c(cc1O)CN(CCCCNC(=O)c1ccc(-c3ccccc3)cc1)CC2`, the pKi is 6.10 on D(1A) dopamine receptor [6], 6.10 at D(2) dopamine receptor [8], 6.14 on D(4) dopamine receptor and 8.57 at D(3) dopamine receptor [2]. The Ratio Ki in the test filed under Homo sapiens [7] and in the test filed under Homo sapiens [9] was 296 throughout.

As to `COc1cc2c(cc1O)CN(CCCCNC(=O)c1ccncc1)CC2`, the pKi at D(4) dopamine receptor is 5.85; at D(3) dopamine receptor [2], 7.62. The inhibition at D(2) dopamine receptor [1] and on D(1A) dopamine receptor [3] was below 50% throughout.

On to `COc1cc2c(cc1O)CN(CCCCNC(=O)c1ccc(Cl)cc1)CC2`, for which the pKi at D(1A) dopamine receptor [6] was 6.17; on D(2) dopamine receptor [8] it was 5.96; at D(4) dopamine receptor, 6.85; at D(3) dopamine receptor [2], 8.68. Further, the results for the Ratio Ki in the test filed under Homo sapiens [7] and in the test filed under Homo sapiens [9] were 323 and 524, respectively.

With `COc1cc2c(cc1O)CN(CCCCNC(=O)c1ccc(O)cc1)CC2`, the outcome at D(3) dopamine receptor [4] was inactive. The pEC50 at D(3) dopamine receptor [5] is 6.38. For the same compound, the results for the pKi at D(4) dopamine receptor and at D(3) dopamine receptor [2] were 6.18 and 8.06, respectively. Moreover, the inhibition against D(2) dopamine receptor [1] and at D(1A) dopamine receptor [3] was below 50% in each case.

`COc1cc2c(cc1O)CN(CCCCNC(=O)c1ccc(C(N)=O)cc1)CC2`: the pKi at D(2) dopamine receptor [8] was 6.07; at D(3) dopamine receptor [2], 7.55. For the same compound, the Ratio Ki in the test listed under Homo sapiens [9] came to 31. Also, the inhibition (in test [10]; against D(1A) dopamine receptor [3]) was below 50% throughout.

As for `COc1cc2c(cc1O)CN(CCCCNC(=O)c1ccc(F)cc1)CC2`, at D(3) dopamine receptor [4], the outcome was inactive. The pEC50 on D(3) dopamine receptor [5] was 6.31. Further, the pKi on D(4) dopamine receptor is 7.02; on D(3) dopamine receptor [2], 8.36. The inhibition at D(2) dopamine receptor [1] and at D(1A) dopamine receptor [3] was below 50% throughout.

On to `COc1cc2c(cc1OC)CN(CCCCNC(=O)c1ccc(C#N)cc1)CC2`, for which the inhibition (against D(2) dopamine receptor [1]; in test [10]; on D(1A) dopamine receptor [3]) was below 50% each time. Further, on D(3) dopamine receptor [2], the pKi was 6.39.

For the compound `COc1cc2c(cc1O)CN(CCCCNC(=O)c1ccc(C#N)cc1)CC2`, on D(3) dopamine receptor [4], the result was inactive. The pEC50 on D(3) dopamine receptor [5] is 5.85. For the same compound, the inhibition (against D(2) dopamine receptor [1]; in test [10]; against D(1A) dopamine receptor [3]) was below 50% throughout. Further, on D(3) dopamine receptor [2], the pKi was 8.20.

Take `COc1cc2c(cc1O)CN(CCCCNC(=O)c1ccc(Br)cc1)CC2`: the pKi at D(1A) dopamine receptor [6] is 6.30; at D(2) dopamine receptor [8], below 5.00; at D(4) dopamine receptor, 6.46; at D(3) dopamine receptor [2], 8.47. The Ratio Ki was 147 in the test filed under Homo sapiens [7] and above 2940 in the test listed under Homo sapiens [9].
